From patent US9738634B2, “Heterocyclic amide compound and herbicide” (SYNGENTA PARTICIPATIONS AG, priority 2013, dated 2017)

Columns and labels:
Type in all cases: in vivo
soybean = experiment: Test Example 3: soil treatment, effect on crop; d: soybean; details: soil treatment, treatment dosage 320 g/ha
Procedure, shortened: (§1)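 Crop and weed responses were judged three weeks after a uniform surface spray of the water-diluted emulsion at the given g/ha rate. Seeds sat beneath about 1.5 cm of sterilized diluvial soil, and boxes stood in a greenhouse at 25 to 30° C.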

redroot pigweed = experiment: Test Example 3: weedkilling efficacy through soil treatment; L: redroot pigweed; details: soil treatment, treatment dosage 320 g/ha
Procedure, shortened: as §1

rapeseed = experiment: Test Example 3: soil treatment, effect on crop; g: rapeseed; details: soil treatment, treatment dosage 320 g/ha
Procedure, shortened: as §1

chickweed = experiment: Test Example 3: weedkilling efficacy through soil treatment; N: chickweed; details: soil treatment, treatment dosage 320 g/ha
Procedure, shortened: as §1

crabgrass = experiment: Test Example 3: weedkilling efficacy through soil treatment; D: crabgrass; details: soil treatment, treatment dosage 320 g/ha
Procedure, shortened: as §1

bulrush [1] = experiment: Test Example 1: weedkilling efficacy, preemergent weed treatment in the submerged state; B: bulrush; details: treatment dosage 320 g/ha
Procedure, shortened: (§2)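 Emulsion diluted with water to the specified per-hectare dosage is applied onto flood water (4 cm) over alluvial soil on the sowing day, with barnyard grass, bulrush and pondweed seeded and rice (2.5-leaf) transplanted; plants grow at 25–30 °C and are rated at 3 weeks.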

corn = experiment: Test Example 3: soil treatment, effect on crop; c: corn; details: soil treatment, treatment dosage 320 g/ha
Procedure, shortened: as §1

common wind-grass = experiment: Test Example 3: weedkilling efficacy through soil treatment; J: common wind-grass; details: soil treatment, treatment dosage 320 g/ha
Procedure, shortened: as §1

oval-leafed pondweed [2] = experiment: Test Example 1: weedkilling efficacy, preemergent weed treatment in the submerged state; C: oval-leafed pondweed; details: treatment dosage 320 g/ha
Procedure, shortened: as §2

barnyard grass [3] = experiment: Test Example 2: weedkilling efficacy, growth period weed treatment in the submerged state; A: barnyard grass; details: treatment dosage 320 g/ha
Procedure, shortened: (§3)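 First, alluvial soil in pots is flooded to 4 cm and mixed seed is sown. Next, plants grow in a greenhouse at 25 to 30° C until the 1-2 leaf stage. Then diluted emulsion is applied onto the water surface at the given g/ha rate, and injury is assessed after 3 weeks.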

wheat = experiment: Test Example 3: soil treatment, effect on crop; e: wheat; details: soil treatment, treatment dosage 320 g/ha
Procedure, shortened: as §1

green foxtail = experiment: Test Example 3: weedkilling efficacy through soil treatment; E: green foxtail; details: soil treatment, treatment dosage 320 g/ha
Procedure, shortened: as §1

transplanted rice = experiment: Test Example 1: preemergent weed treatment in the submerged state, effect on crop; a: transplanted rice; details: treatment dosage 320 g/ha
Procedure, shortened: as §2

beet = experiment: Test Example 3: soil treatment, effect on crop; f: beet; details: soil treatment, treatment dosage 320 g/ha
Procedure, shortened: as §1

black-grass = experiment: Test Example 3: weedkilling efficacy through soil treatment; H: black-grass; details: soil treatment, treatment dosage 320 g/ha
Procedure, shortened: as §1

Italian ryegrass = experiment: Test Example 3: weedkilling efficacy through soil treatment; I: Italian ryegrass; details: soil treatment, treatment dosage 320 g/ha
Procedure, shortened: as §1

directly sown rice = experiment: Test Example 3: soil treatment, effect on crop; b: directly sown rice; details: soil treatment, treatment dosage 320 g/ha
Procedure, shortened: as §1

oval-leafed pondweed [4] = experiment: Test Example 2: weedkilling efficacy, growth period weed treatment in the submerged state; C: oval-leafed pondweed; details: treatment dosage 320 g/ha
Procedure, shortened: as §3

bulrush [5] = experiment: Test Example 2: weedkilling efficacy, growth period weed treatment in the submerged state; B: bulrush; details: treatment dosage 320 g/ha
Procedure, shortened: as §3

barnyard grass [6] = experiment: Test Example 1: weedkilling efficacy, preemergent weed treatment in the submerged state; A: barnyard grass; details: treatment dosage 320 g/ha
Procedure, shortened: as §2

fig-leafed goosefoot = experiment: Test Example 3: weedkilling efficacy through soil treatment; M: fig-leafed goosefoot; details: soil treatment, treatment dosage 320 g/ha
Procedure, shortened: as §1

wild oat = experiment: Test Example 3: weedkilling efficacy through soil treatment; G: wild oat; details: soil treatment, treatment dosage 320 g/ha
Procedure, shortened: as §1

Indian mallow = experiment: Test Example 3: weedkilling efficacy through soil treatment; K: Indian mallow; details: soil treatment, treatment dosage 320 g/ha
Procedure, shortened: as §1

barnyard grass [7] = experiment: Test Example 3: weedkilling efficacy through soil treatment; F: barnyard grass; details: soil treatment, treatment dosage 320 g/ha
Procedure, shortened: as §1

catchweed = experiment: Test Example 3: weedkilling efficacy through soil treatment; O: catchweed; details: soil treatment, treatment dosage 320 g/ha
Procedure, shortened: as §1

birds-eye speedwell = experiment: Test Example 3: weedkilling efficacy through soil treatment; p: birds-eye speedwell; details: soil treatment, treatment dosage 320 g/ha
Procedure, shortened: as §1

SMILES	d: soybean, effect on crop grade (soybean)	L: redroot pigweed, weedkilling efficacy grade (redroot pigweed)	g: rapeseed, effect on crop grade (rapeseed)	N: chickweed, weedkilling efficacy grade (chickweed)	D: crabgrass, weedkilling efficacy grade (crabgrass)	B: bulrush, weed kill grade (bulrush [1])	c: corn, effect on crop grade (corn)	J: common wind-grass, weedkilling efficacy grade (common wind-grass)	C: oval-leafed pondweed, weed kill grade (oval-leafed pondweed [2])	A (barnyard grass) weedkilling efficacy grade (barnyard grass [3])	e: wheat, effect on crop grade (wheat)	E: green foxtail, weedkilling efficacy grade (green foxtail)	a: transplanted rice, effect on crop grade (transplanted rice)	f: beet, effect on crop grade (beet)	H: black-grass, weedkilling efficacy grade (black-grass)	I: Italian ryegrass, weedkilling efficacy grade (Italian ryegrass)	b: directly sown rice, effect on crop grade (directly sown rice)	C (oval-leafed pondweed) weedkilling efficacy grade (oval-leafed pondweed [4])	B (bulrush) weedkilling efficacy grade (bulrush [5])	A: barnyard grass, weed kill grade (barnyard grass [6])	further results
CC(C)(C(=O)Nc1cc(Cl)cc(Oc2ccccc2)n1)N1COCN(c2ccccc2)C1=O [A-2-35]	0 (weed kill ratio 5% or less (practically no effect))	0 (weed kill ratio 5% or less (practically no effect))	1 (weed kill ratio 5% or more, less than 20%)	0 (weed kill ratio 5% or less (practically no effect))	4 (weed kill ratio 70% or more, less than 90%)	5 (weed kill ratio 90% or more, (practically complete withering))	0 (weed kill ratio 5% or less (practically no effect))	4 (weed kill ratio 70% or more, less than 90%)	5 (weed kill ratio 90% or more, (practically complete withering))	4 (weed kill ratio 70% or more, less than 90%)	0 (weed kill ratio 5% or less (practically no effect))	3 (weed kill ratio 40% or more, less than 70%)	1 (weed kill ratio 5% or more, less than 20%)	0 (weed kill ratio 5% or less (practically no effect))	3 (weed kill ratio 40% or more, less than 70%)	3 (weed kill ratio 40% or more, less than 70%)	0 (weed kill ratio 5% or less (practically no effect))	4 (weed kill ratio 70% or more, less than 90%)	4 (weed kill ratio 70% or more, less than 90%)	5 (weed kill ratio 90% or more, (practically complete withering))	M: fig-leafed goosefoot, weedkilling efficacy grade (fig-leafed goosefoot): 0 (weed kill ratio 5% or less (practically no effect)); G: wild oat, weedkilling efficacy grade (wild oat): 0 (weed kill ratio 5% or less (practically no effect)); K: Indian mallow, weedkilling efficacy grade (Indian mallow): 0 (weed kill ratio 5% or less (practically no effect)); F: barnyard grass, weedkilling efficacy grade (barnyard grass [7]): 3 (weed kill ratio 40% or more, less than 70%); O: catchweed, weedkilling efficacy grade (catchweed): 0 (weed kill ratio 5% or less (practically no effect))
Cc1cc(Cl)nc(NC(=O)C(C)(C)N2COCN(c3ccccc3)C2=O)c1 [A-2-26]	2 (weed kill ratio 20% or more, less than 40%)	2 (weed kill ratio 20% or more, less than 40%)	4 (weed kill ratio 70% or more, less than 90%)	3 (weed kill ratio 40% or more, less than 70%)	5 (weed kill ratio 90% or more, (practically complete withering))	5 (weed kill ratio 90% or more, (practically complete withering))	0 (weed kill ratio 5% or less (practically no effect))	5 (weed kill ratio 90% or more, (practically complete withering))	5 (weed kill ratio 90% or more, (practically complete withering))	5 (weed kill ratio 90% or more, (practically complete withering))	3 (weed kill ratio 40% or more, less than 70%)	5 (weed kill ratio 90% or more, (practically complete withering))	4 (weed kill ratio 70% or more, less than 90%)	3 (weed kill ratio 40% or more, less than 70%)	5 (weed kill ratio 90% or more, (practically complete withering))	5 (weed kill ratio 90% or more, (practically complete withering))	5 (weed kill ratio 90% or more, (practically complete withering))	5 (weed kill ratio 90% or more, (practically complete withering))	5 (weed kill ratio 90% or more, (practically complete withering))	5 (weed kill ratio 90% or more, (practically complete withering))	P: birds-eye speedwell, weedkilling efficacy grade (birds-eye speedwell): 5 (weed kill ratio 90% or more, (practically complete withering)); M: fig-leafed goosefoot, weedkilling efficacy grade (fig-leafed goosefoot): 4 (weed kill ratio 70% or more, less than 90%); G: wild oat, weedkilling efficacy grade (wild oat): 5 (weed kill ratio 90% or more, (practically complete withering)); K: Indian mallow, weedkilling efficacy grade (Indian mallow): 0 (weed kill ratio 5% or less (practically no effect)); F: barnyard grass, weedkilling efficacy grade (barnyard grass [7]): 5 (weed kill ratio 90% or more, (practically complete withering))
